# Measurements: patent US8410107B2, “N-pyridin-3-yl or N-pyrazin-2-yl carboxamides” (Hoffmann-La Roche Inc., priority 2010, dated 2013)
# pEC50: −log10 of the molar value.
# What was measured:
# ABCA1 protein = assay: Detection of upregulation of ABCA1 protein in cells (ApoA-I binding, high content image analysis); type: cell-based; conditions: THP-1 macrophage cells; for % increase of ABCA1 at 3 μM: 24 hrs with compound; for pEC50: ABCA1 protein increasing efficacy
# Method: The ability of compounds of the invention to increase the level of ABCA1 protein is determined in replicate cultures of THP-1 macrophage cells in 96-well microplates. Cells are plated at an initial density of 100,000 cells/well in 100 μl medium and differentiated to adherent macrophages with the addition of PMA (100 nM) for 68 hrs in 10% fetal bovine serum, 3 μl/L of b-mercaptoethanol, RPMI-1640 medium. Then, cells are incubated with RPMI-1640 medium containing 1% FCS, 25 μg/ml acetylated LDL, for 24 hours at 37°. Following incubation with acetylated LDL, cells are washed twice with 50 μl PBS and incubated with 100 μl of RPMI-1640 medium containing the compound of interest solubilized in DMSO for an additional 24 hrs. The final DMSO concentration in presence of cells is maintained at 0.5%. ApoA-I binding assay using High Content Image Analysis is initiated by replacing with fresh medium, RPMI without Phenol Red, 0.2% BSA containing AlexaFluor®647 labeled ApoA-I for 2 h/37° C./5% CO2. Then, cells are fixed with 4% Formaldehyde inPBS (15 min, RT). Following Nuclei are stained with Hoechst solution (3 μM PBS) and Cytoplasm with Cell Mask Blue (2 μg/ml PBS), 15 min, RT. Finally the stained cells are fixed with a second round of formaldehyde treatment. Fixed stained cells are washed and kept in PBS at 4° C. and can be read immediately until one month after preparation.
# The Alexa Fluor 647-labeled Apolipoprotein A-I (20 nM) was prepared as follows: Human recombinant Apolipoprotein A-I (ApoA-I) was exchanged to a buffer of 0.02 M NaHCO3 at pH 8.2 on an NAP desalting column (GE Healthcare) and brought to a concentration to 40 μM (1.13 mg/ml) by adjustment with the same buffer. The ApoA-I was fluorescently labeled by incubation with Alexa Fluor carboxylic acid succimidyl ester. (Alexa Fluor 647, Invitrogen A-20006) at a 2:1 molar ratio (Alexa to ApoA-I) for 1 h under shaking at RT. The remaining unconjugated label was removed by buffer exchange to 0.02M NaHCO3 at pH 8.2.
# Imaging and data collection were performed on an OPERA confocal microplate imaging reader using a 20× water immersion objective and UV360 or 405 laser to identify the cell nuclei and a 635 laser to identify the fluorescent ApoA-I. Eight fields of view are captured per well. Image capture and analysis was performed with the Acapella software. Background fluorescence detected in control wells without ApoA-I was subtracted.
# Using XLfit3 program (ID Business Solutions Ltd. UK), the model 205 for Dose Response One Site is used to calculate the EC50 values. The compounds of the present invention increase the level of ABCA1 protein by more than 45% at a concentration of 3 μM. […] Even more preferably, the compounds of the present invention have EC50 values in a range of 0.1 μM to 3 μM.
# human CB2 receptor = target: T1, human CB2 receptor (Homo sapiens, UniProt P34972); assay: CB2 receptor affinity ([3H]-CP-55,940 displacement, HEK cell membranes); type: binding; conditions: displacement of radioligand [3H]-CP-55,940
# T1 construct: expressed in transfected cells; host or cells: human embryonic kidney (HEK) cells, Semliki Forest Virus system, membrane preparations
# T1 sequence (P34972 whole entry): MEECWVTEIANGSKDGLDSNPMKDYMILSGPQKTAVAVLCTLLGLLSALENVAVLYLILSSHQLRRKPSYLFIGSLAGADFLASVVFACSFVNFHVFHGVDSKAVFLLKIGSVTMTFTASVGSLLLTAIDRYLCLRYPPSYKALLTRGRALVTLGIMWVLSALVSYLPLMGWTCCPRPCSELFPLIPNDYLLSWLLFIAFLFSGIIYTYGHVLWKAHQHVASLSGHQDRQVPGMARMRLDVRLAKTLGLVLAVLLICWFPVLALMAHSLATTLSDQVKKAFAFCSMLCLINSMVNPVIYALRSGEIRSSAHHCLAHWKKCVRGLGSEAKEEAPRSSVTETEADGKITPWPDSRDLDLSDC
# Method: (§1) The affinity of the compounds of the invention for cannabinoid CB2 receptors was determined using membrane preparations of human embryonic kidney (HEK) cells in which the human CB2 receptor is transiently transfected using a Semliki Forest Virus system in conjunction with [^3H]-CP-55,940 as radioligand. After incubation of freshly prepared cell membrane preparation with the [^3H]-ligand, with or without addition of compounds of the invention, separation of bound and free ligand was performed by filtration over glass fiber filters. Radioactivity on the filter was measured by scintillation counting.
# (§2) The ability of the compounds to displace the radioligand [^3H]-CP-55,940 was measured at a concentration of 10 μM and values provided as [% inhibition @ 10 μM] both for the CB1 and CB2 receptor assay, The lower % inhibition is, the lower the likelihood of side effects based on CB1 or CB2 receptor inhibition is.
# human CB1 receptor = target: T2, human CB1 receptor (Homo sapiens, UniProt P21554); assay: CB1 receptor affinity ([3H]-CP-55,940 displacement, HEK cell membranes); type: binding; conditions: displacement of radioligand [3H]-CP-55,940
# T2 construct: expressed in transfected cells; host or cells: human embryonic kidney (HEK) cells, Semliki Forest Virus system, membrane preparations
# T2 sequence (P21554 whole entry): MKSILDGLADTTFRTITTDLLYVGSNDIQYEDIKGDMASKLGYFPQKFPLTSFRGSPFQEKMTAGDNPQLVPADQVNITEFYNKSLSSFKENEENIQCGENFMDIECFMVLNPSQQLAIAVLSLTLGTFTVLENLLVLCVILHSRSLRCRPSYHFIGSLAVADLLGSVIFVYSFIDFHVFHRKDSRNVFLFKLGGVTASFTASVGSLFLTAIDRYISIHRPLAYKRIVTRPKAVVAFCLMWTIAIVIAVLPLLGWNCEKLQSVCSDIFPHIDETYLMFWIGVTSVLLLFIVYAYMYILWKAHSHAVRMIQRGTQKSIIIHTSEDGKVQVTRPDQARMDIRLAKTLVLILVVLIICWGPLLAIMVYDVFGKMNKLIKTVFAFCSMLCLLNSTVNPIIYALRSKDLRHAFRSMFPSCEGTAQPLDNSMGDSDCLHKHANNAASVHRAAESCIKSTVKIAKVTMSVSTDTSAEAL
# Method: as §1, with “cannabinoid” for “cannabinoid CB2”, “CB1” for “CB2”, “[3H]-CP-55,940” for “[^3H]-CP-55,940”
# as §2
SMILES,inhibition at 10 µM (human CB2 receptor),inhibition at 10 µM (human CB1 receptor),% increase of ABCA1 at 3 μM (ABCA1 protein),pEC50 (ABCA1 protein)
"CCCCC(=O)Nc1cnc(OCC(F)(F)F)c(-c2ccc(Cl)cc2)c1 [Example 1, pentanoic acid[5-(4-chloro-phenyl)-6-(2,2,2-trifluoro-ethoxy)-pyridin-3-yl]-amide]",9.2%,45%,>45% @ 3 μM,–
"O=C(Nc1cnc(OCC(F)(F)F)c(-c2ccc(Cl)cc2)c1)c1ccccc1 [Example 2, N-[5-(4-chloro-phenyl)-6-(2,2,2-trifluoro-ethoxy)-pyridin-3-yl]-benzamide]",4.9%,33%,–,5.57
"O=C(Nc1cnc(OCC(F)(F)F)c(-c2ccc(Cl)cc2)c1)c1cccnc1 [Example 3, N-[5-(4-chloro-phenyl)-6-(2,2,2-trifluoro-ethoxy)-pyridin-3-yl]-nicotinamide]",8%,29%,–,5.64
"O=C(Nc1cnc(OCC(F)(F)F)c(-c2ccc(Cl)cc2)c1)c1ccncc1 [Example 4, N-[5-(4-chloro-phenyl)-6-(2,2,2-trifluoro-ethoxy)-pyridin-3-yl]-isonicotinamide]",1.9%,36%,>45% @ 3 μM,–
"CC(=O)Nc1cnc(OCC(F)(F)F)c(-c2ccc(Cl)cc2)c1 [Example 5, N-[5-(4-chloro-phenyl)-6-(2,2,2-trifluoro-ethoxy)-pyridin-3-yl]-acetamide]",-5.4%,19%,>45% @ 3 μM,–
"CCCC(=O)Nc1cnc(OCC(F)(F)F)c(-c2ccc(Cl)cc2)c1 [Example 6, N-[5-(4-Chloro-phenyl)-6-(2,2,2-trifluoro-ethoxy)-pyridin-3-yl]-butyramide]",11%,47%,>45% @ 3 μM,–
"O=C(Nc1cnc(OCC(F)(F)F)c(-c2ccc(Cl)cc2)c1)c1ccccn1 [Example 7, pyridine-2-carboxylic acid[5-(4-chloro-phenyl)-6-(2,2,2-trifluoro-ethoxy)-pyridin-3-yl]-amide]",1.2%,13%,>45% @ 3 μM,–
"O=C(Nc1cnc(OCC2CC2)c(-c2ccc(Cl)cc2)c1)c1ccccc1 [Example 8, N-[5-(4-chloro-phenyl)-6-cyclopropylmethoxy-pyridin-3-yl]-benzamide]",15%,52%,–,5.56
"CC(=O)Nc1cnc(OCC2CC2)c(-c2ccc(Cl)cc2)c1 [Example 9, N-[5-(4-chloro-phenyl)-6-cyclopropylmethoxy-pyridin-3-yl]-acetamide]",9.6%,24%,>45% @ 3 μM,–
"O=C(Nc1cnc(OCC2CC2)c(-c2ccc(Cl)cc2)c1)c1cccnc1 [Example 10, N-[5-(4-chloro-phenyl)-6-cyclopropylmethoxy-pyridin-3-yl]-nicotinamide]",28%,36%,–,5.19
"O=C(Nc1cnc(OCC2CC2)c(-c2ccc(Cl)cc2)c1)c1ccncc1 [Example 11, N-[5-(4-chloro-phenyl)-6-cyclopropylmethoxy-pyridin-3-yl]-isonicotinamide]",-1.2%,25%,>45% @ 3 μM,–

# Further lines, with some results ahead:
inhibition at 10 µM (human CB2 receptor),inhibition at 10 µM (human CB1 receptor),SMILES,% increase of ABCA1 at 3 μM (ABCA1 protein),pEC50 (ABCA1 protein)
15%,49%,"O=C(Nc1cnc(OCC(F)(F)F)c(-c2ccc(Cl)cc2)c1)[C@H]1CCCO1 (racemic) [Example 70, (RS)-N-(5-(4-chlorophenyl)-6-(2,2,2-trifluoroethoxy)pyridin-3-yl)tetrahydrofuran-2-carboxamide]",>45% @ 3 μM,–
4%,41%,"O=C(Nc1cnc(OCC(F)(F)F)c(-c2ccc(Cl)cc2)c1)[C@H]1CCOC1 (racemic) [Example 71, (SR)-N-(5-(4-chlorophenyl)-6-(2,2,2-trifluoroethoxy)pyridin-3-yl)-tetrahydrofuran-3-carboxamide]",>45% @ 3 μM,–
4%,22%,"O=C(Nc1cnc(OCC(F)(F)F)c(-c2ccc(Cl)cc2)c1)c1cnccn1 [Example 12, pyrazine-2-carboxylic acid[5-(4-chloro-phenyl)-6-(2,2,2-trifluoro-ethoxy)-pyridin-3-yl]-amide]",>45% @ 3 μM,–
3%,16%,"Cc1cc(C(=O)Nc2cnc(OCC(F)(F)F)c(-c3ccc(Cl)cc3)c2)n(C)n1 [Example 13, 2,5-dimethyl-2H-pyrazole-3-carboxylic acid[5-(4-chloro-phenyl)-6-(2,2,2-trifluoro-ethoxy)-pyridin-3-yl]-amide]",>45% @ 3 μM,–
10%,38%,"Cc1nocc1C(=O)Nc1cnc(OCC(F)(F)F)c(-c2ccc(Cl)cc2)c1 [Example 14, 3-methyl-isoxazole-4-carboxylic acid[5-(4-chloro-phenyl)-6-(2,2,2-trifluoro-ethoxy)-pyridin-3-yl]-amide]",>45% @ 3 μM,–
2%,27%,"Cn1ccc(C(=O)Nc2cnc(OCC(F)(F)F)c(-c3ccc(Cl)cc3)c2)n1 [Example 15, 1-methyl-1H-pyrazole-3-carboxylic acid[5-(4-chloro-phenyl)-6-(2,2,2-trifluoro-ethoxy)-pyridin-3-yl]-amide]",>45% @ 3 μM,–
-1%,34%,"Cc1cc(C(=O)Nc2cnc(OCC(F)(F)F)c(-c3ccc(Cl)cc3)c2)no1 [Example 16, 5-methyl-3-isoxazolecarboxylic acid[5-(4-chloro-phenyl)-6-(2,2,2-trifluoro-ethoxy)-pyridin-3-yl]-amide]",–,5.22
-3%,16%,"O=C(Nc1cnc(OCC(F)(F)F)c(-c2ccc(Cl)cc2)c1)c1cccnn1 [Example 17, 3-pyridazinecarboxylic acid[5-(4-chloro-phenyl)-6-(2,2,2-trifluoro-ethoxy)-pyridin-3-yl]-amide]",–,5.64
3%,37%,"Cc1cnccc1C(=O)Nc1cnc(OCC(F)(F)F)c(-c2ccc(Cl)cc2)c1 [Example 18, N-[5-(4-chloro-phenyl)-6-(2,2,2-trifluoro-ethoxy)-pyridin-3-yl]-3-methyl-4-pyridinecarboxylic acid amide]",>45% @ 3 μM,–
-10%,25%,"O=C(Nc1cnc(OCC(F)(F)F)c(-c2ccc(Cl)cc2)c1)c1cncnc1 [Example 19, 5-pyrimidinecarboxylic acid[5-(4-chloro-phenyl)-6-(2,2,2-trifluoro-ethoxy)-pyridin-3-yl]-amide]",–,5.86
